# B1: G-CSF: recombinant human G-CSF formulation, manufactured by Chugai Pharmaceutical Co., Ltd., positive control (protein, UniProt P09919 31-207, looked up)
# Granulocyte …: TPLGPASSLPQSFLLKCLEQVRKIQGDGAALQEKLVSECATYKLCHPEELVLLGHSLGIPWAPLSSCPSQALQLAGCLSQLHSGLFLYQGLLQALEGISPELGPTLDTLQLDVADFATTIWQQMEELGMAPALQPTQGAMPAFASAFQRRAGGVLVASHLQSFLEVSYRVLRHLAQP
# Assays:
# [1] = tested on: rat models of suppressed hematopoietic function by 5-FU administration; test: Ratio of segmented neutrophils in rat models of suppressed hematopoietic function by 5-FU (Example 27); format: in vivo; settings: 5-FU rats
# Description: (1) The animals used are the same as in Example 26. The keeping condition was a temperature of 23±2° C. and a humidity of 55±15%.
# (2) The creation of the 5-FU administration model, the administration of test substances, and the blood collection schedule were carried out in a similar manner to Example 26. Hematological tests were carried out using the Toa multi-channel automatic cell counter K-4500 or Toa Sysmex CC-180A automatic cell counter, differential counts of white blood cells were carried out by May-Giemsa stain followed by microscopic examination, reticulocytes were counted by the Brecher method.
# (3) Using the same schedule as in Example 26, the negative control group that only received the fat emulsion after 5-FU administration, the group that received the glutathione derivative of Example 4 at 30 mg/kg-body weight/day as a test substance together with the fat emulsion, the group that similarly received the glutathione derivative of Example 1 at 10 or 30 mg/kg-body weight/day, and the group that received the glutathione derivative of Example 7 at 30 or 60 mg/kg-body weight/day were studied.
# [2] = Stability in rabbit plasma; settings: heparinized plasma, 250-323 μg/ml
# Description: (§1) (1) Bovine serum albumin (hereinafter referred to as BSA), Dulbecco's phosphate buffered saline (hereinafter referred to as D-PBS), swine liver esterase, and rabbit liver esterase were purchased from Sigma, 6-week old male SD rats were purchased from Nippon SLC, and 12-week old or older male Japanese white rabbits were purchased from Ichikawaya. On the day of the incubation experiment described below, blood was drawn from the animals in the presence of heparin, and plasma was separated therefrom for use. Human plasma was obtained from normal healthy males after obtaining their consent.
# (§2) (2) The glutathione derivatives described in the Examples and Comparative Examples of the present invention were incubated for a fixed time in an enzyme solution having the following composition. Acetonitrile was added to the reaction mixture to inactivate the enzyme thereby to stop the reaction. The concentration of the glutathione derivatives in the deproteinized supernatant was measured by HPLC. For each time point of the esterase enzyme experiment, the mean values from two measurement or more were determined, and for the rats and rabbits the mean values of plasma samples from three individuals were determined. For some of the experiment data, changes with time of percentages relative to initial concentration of the glutathione derivative are shown in FIGS. 2 to 4.
# Rat, rabbit, and human plasma
# Heparinized plasma: 30 to 40 parts
# 10 mg-glutathione derivative/ml-ethanol: one part (the final concentration in the reaction mixture is 250-323 μg/ml)
# [3] = Pharmacokinetics after intravenous administration to rabbits, 2-compartment model (Example 25); format: in vivo, rabbit; settings: iv auricular vein 2 ml/kg, fat emulsion (Comparative Ex. 1: HPCD/glucose solution)
# Description: For the glutathione derivative of the present invention having a long-chain ester having 12 carbons or more and the glutathione derivatives of the conventional technology of Comparative Examples 1 and 2, kinetics in the blood were compared in rabbits that are a species having allow esterase activity in the blood.
# (1) Male Japanese white rabbits, 12-week old or older, were purchased from Ichikawaya, and those rabbits that became 15-week old or older and whose body weight reached about 3 kg were used for the experiment. During the period up to the experiment, the animals were allowed free access to the animal feed and drinking water and were kept at a temperature of 24±2° C. and a humidity of 55±5%.
# (2) The glutathione derivative having a long-chain ester of 12 carbons or more and the glutathione derivative of Comparative Example 2 were prepared at 20-200 mg/ml in a mixture of ethanol or ethanol:benzyl alcohol, which was mixed with the fat emulsion just prior to use, and was filtered with a 1.2 μm filter to obtain a liquid for intravenous administration. On the other hand, the glutathione derivative of Comparative Example 1 was dissolved in an aqueous solution of 6%-hydroxypropyl-β-cyclodextrin/5%-glucose at 15 mg/ml to obtain an administration liquid.
# (3) The administration liquid of the glutathione derivative obtained in (2) at a dose of 2 ml/kg was rapidly infused into the left auricular vein of the rabbits under no anesthesia and under restraint at a rate of 1 ml/min. Each glutathione derivative was given to three or more rabbits. At 5, 10, 15, 30, 60, 120, and 240 minutes after the completion of the administration, 1 ml of the blood was drawn from the right auricular vein in the presence of heparin, which was immediately cooled on ice. Plasma was obtained by centrifuging the blood, 1-2 volume parts of acetonitrile was added to deproteinize the supernatant, which was filtered by a 0.5 μm filter. The supernatant of the filtrate was quantitated by HPLC.
# swine liver esterase = test: Decomposition of glutathione derivatives by swine liver esterase (physiological stability); format: in vitro ADME; settings: BSA/D-PBS pH 7.4, 196-244 μg/ml
# Description: as §1, §2
# (§3) Swine liver esterase and rabbit liver esterase experiment
# (§4) 30 mg-BSA/ml-D-PBS (pH 7.4): 36 to 45 parts
# (§5) Swine or rabbit liver esterase/D-PBS: 4-5 parts
# (§6) 10 mg-glutathione derivative/ml-ethanol: one part (the final concentration in the reaction mixture is 196-244 μg/ml)
# rabbit liver esterase = test: Decomposition of glutathione derivatives by rabbit liver esterase (physiological stability); format: in vitro ADME; settings: BSA/D-PBS pH 7.4, 196-244 μg/ml
# Description: as §1, §2, §3, §4, §5, §6
# [4] = tested on: rat models of suppressed hematopoietic function by 5-FU administration; test: Recovery of neutrophil counts in rat models of suppressed hematopoietic function by 5-FU (Example 26); format: in vivo; settings: 5-FU rats; 10 μg/kg-body weight/day, days 2-10; day 4 and from day 8
# Description: Regarding the effect of promoting the recovery of neutrophil counts in rat models of suppressed hematopoietic function by 5-fuluorouracil administration, statistical significance was compared to the control group to compare the pharmaceutical composition containing Example 4 of the present invention as an active ingredient with the pharmaceutical composition of the conventional technology of Comparative Example 1 and granulocyte colony-stimulating factor (G-CSF).
# (1) Animals used and the keeping condition: Male SD rats, 6-week old, purchased from Nippon SLC were used. The animal feed (manufactured by Oriental Yeast Co., Ltd.) and drinking water (well water treated with 0.4±0.2 ppm hypochlorous acid) were given ad libitum during the period of the experiment. The animals were housed in a hanging-type rat cage (manufactured by Nippon Cage K.K.) and kept at a temperature of 24±2° C. and a humidity of 55±5%.
# (2) Creation of rat models of suppressed hematopoietic function by 5-FU administration; Creation of rat models of suppressed hematopoietic function by 5-FU (Kyowa Hakko Kogyo Co. Ltd.) administration was carried out based on the method of Akamatsu et al. (Yakuri to Chiryo(Pharmacology and Therapy), 18. (Suppl. 9), 317-356 (1990)). Thus, on the first day of the experiment, 5-FU at 50 mg/kg-body weight (dosage volume is 1 ml/kg-body weight) or the same amount of physiological saline (manufactured by Fuso Pharmaceuticals Industries, Ltd.) was intraperitoneally administered to the rats described in (1). On days 4, and 7-12, blood was drawn from the jugular vein and the EDTA-2K-treated blood was obtained. The blood was used to determine the neutrophil count using a general chemistry test instrument (Technicon H-1E, manufactured by Bayer-Sankyo K.K.) and the ratio of reticulocytes using a reticulocyte determination instrument (EPICS, XL-MCL, manufactured by Coulter K.K.). Blood was also drawn on day 1 of the experiment, and the values determined for the blood were used as the pre-administration values.
# In the physiological saline administration group, no changes in neutrophil count were observed throughout the experiment period, whereas in the 5-FU administration group there was a reduction in neutrophil count with the lowest value observed on day 8 of the experiment, and the neutrophil count was recovered to the value before 5-FU administration or higher on day 10 of the experiment or after. The above results confirmed that rat models of suppressed hematopoietic function can be created by a single intraperitoneal administration of 5-FU at 50 mg/kg-body weight.
# (3) Evaluation of Example 4 and Comparative Example 1 in the above model; To the model described in (2), the glutathione derivative of Example 4 combined with the fat emulsion at 10 to 30 mg/kg-body weight/day or the glutathione derivative of Comparative Example 1 dissolved in a physiological saline containing 2.5% hydroxypropyl-β-cyclodextrin at 50 mg/kg-body weight/day was repeatedly administered into the tail vein for 9 days from day 2 to 10 of the experiment. The recombinant human G-CSF formulation (hereinafter referred to as G-CSF, manufactured by Chugai Pharmaceutical Co., Ltd.) as the positive control at 10 μg/kg-body weight/day and the empty fat emulsion as the negative control were administered in a similar manner. […]
# [5] = 30 mg/kg-body weight/day with fat emulsion
Molecule,Recovery of segmented neutrophil counts relative to the negative control ([1]; 10 mg/kg-body weight/day with fat emulsion),"Recovery of segmented neutrophil counts relative to the negative control [1, 5]",Half life in rabbit plasma [2],Clearance per body weight [3],Distribution volume per body weight of the central compartment [3],Decomposition rate constant by swine liver esterase (swine liver esterase),Decomposition rate constant by rabbit liver esterase (rabbit liver esterase),"Recovery of neutrophil counts relative to the negative control ([1]; 60 mg/kg-body weight/day with fat emulsion, days 11 and 12)",Neutrophil counts relative to the negative control group [4]
"CCCCCCCCCCCCCCCCCCOC(=O)[C@@H](N)CCC(=O)N[C@@H](CSCc1ccccc1)C(=O)N[C@@H](C(=O)OCC)c1ccccc1.Cl [Example 1, Glu(Cys(Bzl)-D-Phg-OEt)-O(Octadecyl)hydrochloride]",tendency of promoting the recovery of segmented neutrophil counts,tendency of promoting the recovery of segmented neutrophil counts,408.57 h,0.5 mL/min/kg,0.06 L/kg,0.0901 10^−4/unit/min,0.300 10^−4/unit/min,,
"CCCCCCCCCCCCOC(=O)[C@@H](N)CCC(=O)N[C@@H](CSCc1ccccc1)C(=O)N[C@@H](C(=O)OCC)c1ccccc1.Cl [Example 7, Glu(Cys(Bzl)-D-Phg-OEt)-O(Dodecyl)hydrochloride]",,no changes relative to the negative control,5.38 h,47.5 mL/min/kg,0.47 L/kg,15.2 10^−4/unit/min,21.1 10^−4/unit/min,tendency of promoting the recovery of neutrophil counts,
"CCCCCCCCCCCCCCOC(=O)[C@@H](N)CCC(=O)N[C@@H](CSCc1ccccc1)C(=O)N[C@@H](C(=O)OCC)c1ccccc1.Cl [Example 6, Glu(Cys(Bzl)-D-Phg-OEt)-O(Tetradecyl)hydrochloride]",,,18.07 h,4.83 mL/min/kg,0.08 L/kg,2.61 10^−4/unit/min,5.11 10^−4/unit/min,,
B1,,,,,,,,,statistically significant increase in neutrophil counts
